Test results reported in publication PMC4447944 (The Journal of Biological Chemistry, 2015).

Key:
hABL1(pE255K) = target: T1, hABL1(pE255K) (Homo sapiens, UniProt P00519, E255K); experiment: KINOMEscan; type: binding
T1 construct: purchased DiscoverX (KINOMEscan platform)

hABL1(pY253F) = target: T2, hABL1(pY253F) (Homo sapiens, UniProt P00519, Y253F); experiment: KINOMEscan; type: binding
T2 construct: purchased DiscoverX (KINOMEscan platform)

hADCK4 = target: T3, hADCK4 (Homo sapiens, UniProt Q96D53); experiment: KINOMEscan; type: binding
T3 construct: purchased DiscoverX

hAKT2 = target: T4, hAKT2 (Homo sapiens, UniProt P31751); experiment: KINOMEscan; type: binding
T4 construct: purchased DiscoverX
T4 sequence (P31751 whole entry): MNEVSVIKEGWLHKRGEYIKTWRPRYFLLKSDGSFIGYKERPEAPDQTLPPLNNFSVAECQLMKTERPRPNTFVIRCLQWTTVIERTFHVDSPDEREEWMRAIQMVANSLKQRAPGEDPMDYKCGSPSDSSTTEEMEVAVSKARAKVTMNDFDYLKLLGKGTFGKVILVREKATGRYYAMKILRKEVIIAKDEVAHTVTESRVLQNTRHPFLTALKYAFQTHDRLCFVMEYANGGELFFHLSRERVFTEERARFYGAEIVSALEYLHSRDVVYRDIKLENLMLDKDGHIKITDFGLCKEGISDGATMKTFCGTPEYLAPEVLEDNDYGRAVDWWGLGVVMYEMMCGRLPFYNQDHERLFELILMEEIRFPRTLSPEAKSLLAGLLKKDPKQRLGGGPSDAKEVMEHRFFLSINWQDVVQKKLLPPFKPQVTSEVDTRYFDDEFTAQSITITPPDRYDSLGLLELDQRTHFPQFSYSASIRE

hAURKB = target: T5, hAURKB (Homo sapiens, UniProt Q96GD4); experiment: KINOMEscan; type: binding
T5 construct: purchased DiscoverX

hBMPR1A = target: T6, hBMPR1A (Homo sapiens, UniProt P36894); experiment: KINOMEscan; type: binding
T6 construct: purchased DiscoverX

hCAMK1 = target: T7, hCAMK1 (Homo sapiens, UniProt Q14012); experiment: KINOMEscan; type: binding
T7 construct: purchased DiscoverX

hCLK1 = target: T8, hCLK1 (Homo sapiens, UniProt P49759); experiment: KINOMEscan; type: binding
T8 construct: purchased DiscoverX

hCLK4 = target: T9, hCLK4 (Homo sapiens, UniProt Q9HAZ1); experiment: KINOMEscan; type: binding
T9 construct: purchased DiscoverX (KINOMEscan platform)

hEGFR(G719C) = target: T10, hEGFR(G719C) (Homo sapiens, UniProt P00533, G719C); experiment: KINOMEscan; type: binding
T10 construct: purchased DiscoverX

[1] = target: T11, hEGFR(L747-E749del, A750P) (Homo sapiens, UniProt P00533, A750P/DEL747-749); experiment: KINOMEscan; type: binding
T11 construct: purchased DiscoverX
T11 sequence (P00533 with tags, fused parts or gaps DEL747-749/A750P): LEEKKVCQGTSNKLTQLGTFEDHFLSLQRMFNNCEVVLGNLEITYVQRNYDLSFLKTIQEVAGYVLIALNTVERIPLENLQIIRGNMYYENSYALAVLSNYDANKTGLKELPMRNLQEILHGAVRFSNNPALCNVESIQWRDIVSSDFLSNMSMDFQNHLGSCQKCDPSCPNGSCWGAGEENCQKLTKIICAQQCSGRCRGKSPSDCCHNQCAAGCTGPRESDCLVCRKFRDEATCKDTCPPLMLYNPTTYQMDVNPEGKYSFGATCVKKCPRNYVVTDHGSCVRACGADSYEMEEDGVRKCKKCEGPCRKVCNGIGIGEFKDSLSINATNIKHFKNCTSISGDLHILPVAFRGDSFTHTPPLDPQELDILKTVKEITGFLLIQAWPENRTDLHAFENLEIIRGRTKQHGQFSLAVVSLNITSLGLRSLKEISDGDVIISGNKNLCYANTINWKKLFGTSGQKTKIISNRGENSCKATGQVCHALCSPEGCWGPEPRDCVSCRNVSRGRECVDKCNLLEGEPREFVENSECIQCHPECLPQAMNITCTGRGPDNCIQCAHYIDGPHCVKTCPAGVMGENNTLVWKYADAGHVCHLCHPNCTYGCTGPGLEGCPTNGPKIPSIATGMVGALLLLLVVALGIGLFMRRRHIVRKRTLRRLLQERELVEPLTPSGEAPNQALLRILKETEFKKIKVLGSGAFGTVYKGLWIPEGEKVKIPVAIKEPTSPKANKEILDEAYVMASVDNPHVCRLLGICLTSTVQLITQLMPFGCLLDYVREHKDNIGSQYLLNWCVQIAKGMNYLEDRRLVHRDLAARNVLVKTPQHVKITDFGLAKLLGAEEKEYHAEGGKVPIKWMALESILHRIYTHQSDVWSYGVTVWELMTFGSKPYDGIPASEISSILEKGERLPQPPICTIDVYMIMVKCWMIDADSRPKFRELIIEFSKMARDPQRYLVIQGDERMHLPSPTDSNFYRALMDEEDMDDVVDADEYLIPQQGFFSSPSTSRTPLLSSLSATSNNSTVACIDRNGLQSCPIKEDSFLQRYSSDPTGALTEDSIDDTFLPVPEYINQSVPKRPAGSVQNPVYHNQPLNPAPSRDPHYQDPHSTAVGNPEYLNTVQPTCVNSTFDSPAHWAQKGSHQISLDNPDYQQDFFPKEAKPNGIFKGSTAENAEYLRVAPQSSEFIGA

hEPHA4 = target: T12, hEPHA4 (Homo sapiens, UniProt P54764); experiment: KINOMEscan; type: binding
T12 construct: purchased DiscoverX

hEPHB6 = target: T13, hEPHB6 (Homo sapiens, UniProt O15197); experiment: KINOMEscan; type: binding
T13 construct: purchased DiscoverX

hERN1 = target: T14, hERN1 (Homo sapiens, UniProt O75460); experiment: KINOMEscan; type: binding
T14 construct: purchased DiscoverX
T14 sequence (O75460 19-977): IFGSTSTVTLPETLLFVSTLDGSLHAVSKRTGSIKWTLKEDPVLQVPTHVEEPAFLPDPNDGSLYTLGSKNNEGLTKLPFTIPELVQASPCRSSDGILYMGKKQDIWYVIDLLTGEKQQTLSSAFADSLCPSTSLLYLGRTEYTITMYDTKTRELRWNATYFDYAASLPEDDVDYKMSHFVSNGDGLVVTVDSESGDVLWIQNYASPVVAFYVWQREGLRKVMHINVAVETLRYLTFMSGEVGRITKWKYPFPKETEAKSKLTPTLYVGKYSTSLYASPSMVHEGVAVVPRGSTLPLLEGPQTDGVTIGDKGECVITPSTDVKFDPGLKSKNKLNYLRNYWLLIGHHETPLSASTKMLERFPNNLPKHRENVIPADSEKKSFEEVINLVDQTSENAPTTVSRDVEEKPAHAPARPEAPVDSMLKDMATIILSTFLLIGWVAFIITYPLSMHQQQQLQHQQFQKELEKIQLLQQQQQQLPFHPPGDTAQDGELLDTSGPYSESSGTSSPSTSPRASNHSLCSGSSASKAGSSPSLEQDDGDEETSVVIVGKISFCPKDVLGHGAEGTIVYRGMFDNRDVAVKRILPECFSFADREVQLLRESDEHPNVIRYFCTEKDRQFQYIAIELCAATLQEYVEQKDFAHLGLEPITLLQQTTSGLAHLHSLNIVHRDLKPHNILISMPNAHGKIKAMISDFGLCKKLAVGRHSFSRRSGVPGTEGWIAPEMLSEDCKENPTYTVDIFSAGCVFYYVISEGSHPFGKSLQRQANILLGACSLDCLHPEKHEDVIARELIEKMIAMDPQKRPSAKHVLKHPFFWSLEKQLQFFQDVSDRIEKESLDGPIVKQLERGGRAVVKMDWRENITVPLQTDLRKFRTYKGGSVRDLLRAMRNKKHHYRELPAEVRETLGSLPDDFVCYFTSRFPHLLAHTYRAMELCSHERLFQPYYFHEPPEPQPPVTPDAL

hFGFR4 = target: T15, hFGFR4 (Homo sapiens, UniProt P22455); experiment: KINOMEscan; type: binding
T15 construct: purchased DiscoverX
T15 sequence (P22455 22-802): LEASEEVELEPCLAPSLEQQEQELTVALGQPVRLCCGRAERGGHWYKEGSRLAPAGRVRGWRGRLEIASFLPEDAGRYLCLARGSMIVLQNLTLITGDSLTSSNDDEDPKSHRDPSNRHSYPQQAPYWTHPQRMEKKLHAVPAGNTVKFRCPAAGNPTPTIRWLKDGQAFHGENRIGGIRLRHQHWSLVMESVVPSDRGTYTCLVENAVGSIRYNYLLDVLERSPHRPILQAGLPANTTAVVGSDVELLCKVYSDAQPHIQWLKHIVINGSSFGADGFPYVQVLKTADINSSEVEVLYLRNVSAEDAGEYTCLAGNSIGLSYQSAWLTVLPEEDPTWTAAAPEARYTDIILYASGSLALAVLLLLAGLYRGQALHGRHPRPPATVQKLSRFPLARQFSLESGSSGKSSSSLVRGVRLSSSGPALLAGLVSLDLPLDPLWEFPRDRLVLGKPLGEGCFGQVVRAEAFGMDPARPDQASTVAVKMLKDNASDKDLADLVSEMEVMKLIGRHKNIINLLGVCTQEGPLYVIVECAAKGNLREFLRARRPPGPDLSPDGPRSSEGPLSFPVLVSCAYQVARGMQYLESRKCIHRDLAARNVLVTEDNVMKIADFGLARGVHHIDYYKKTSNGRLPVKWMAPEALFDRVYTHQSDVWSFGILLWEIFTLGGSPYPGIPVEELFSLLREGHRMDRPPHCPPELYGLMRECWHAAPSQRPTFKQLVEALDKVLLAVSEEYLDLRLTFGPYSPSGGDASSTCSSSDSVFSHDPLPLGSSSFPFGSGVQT

hFLT3(ITD) = experiment: KINOMEscan; type: binding, human
hHIPK4 = target: T16, hHIPK4 (Homo sapiens, UniProt Q8NE63); experiment: KINOMEscan; type: binding
T16 construct: purchased DiscoverX

hJNK1 = target: T17, hJNK1 (Homo sapiens, UniProt P45983); experiment: KINOMEscan; type: binding
T17 construct: purchased DiscoverX (KINOMEscan panel)

hMAP3K4 = target: T18, hMAP3K4 (Homo sapiens, UniProt Q9Y6R4); experiment: KINOMEscan; type: binding
T18 construct: purchased DiscoverX (KINOMEscan platform)

hMET = target: T19, hMET (Homo sapiens, UniProt P08581); experiment: KINOMEscan; type: binding
T19 construct: purchased DiscoverX

hRET(V804M) = target: T20, hRET(V804M) (Homo sapiens, UniProt P07949, V804M); experiment: KINOMEscan; type: binding
T20 construct: purchased DiscoverX (KINOMEscan platform)

hROCK1 = target: T21, hROCK1 (Homo sapiens, UniProt Q13464); experiment: KINOMEscan; type: binding
T21 construct: purchased DiscoverX (KINOMEscan platform)

hSLK = target: T22, hSLK (Homo sapiens, UniProt Q9H2G2); experiment: KINOMEscan; type: binding
T22 construct: purchased DiscoverX (KINOMEscan platform)

hTAK1 = target: T23, hTAK1 (Homo sapiens, UniProt O43318); experiment: KINOMEscan; type: binding
T23 construct: purchased DiscoverX

hTIE2 = target: T24, hTIE2 (Homo sapiens, UniProt Q02763); experiment: KINOMEscan; type: binding
T24 construct: purchased DiscoverX

hTSSK1B = target: T25, hTSSK1B (Homo sapiens, UniProt Q9BXA7); experiment: KINOMEscan; type: binding
T25 construct: purchased DiscoverX
T25 sequence (Q9BXA7 whole entry): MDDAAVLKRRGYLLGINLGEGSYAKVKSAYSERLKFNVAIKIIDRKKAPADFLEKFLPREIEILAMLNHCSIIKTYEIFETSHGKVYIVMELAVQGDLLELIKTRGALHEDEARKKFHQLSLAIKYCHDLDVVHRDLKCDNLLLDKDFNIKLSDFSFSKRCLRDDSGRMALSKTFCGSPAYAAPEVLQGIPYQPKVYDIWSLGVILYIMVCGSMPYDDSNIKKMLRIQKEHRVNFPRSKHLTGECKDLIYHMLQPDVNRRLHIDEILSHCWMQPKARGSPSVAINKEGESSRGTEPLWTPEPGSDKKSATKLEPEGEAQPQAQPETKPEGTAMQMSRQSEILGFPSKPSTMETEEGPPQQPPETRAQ

hYANK3 = target: T26, hYANK3 (Homo sapiens, UniProt Q86UX6); experiment: KINOMEscan; type: binding
T26 construct: purchased DiscoverX
T26 sequence (Q86UX6 whole entry): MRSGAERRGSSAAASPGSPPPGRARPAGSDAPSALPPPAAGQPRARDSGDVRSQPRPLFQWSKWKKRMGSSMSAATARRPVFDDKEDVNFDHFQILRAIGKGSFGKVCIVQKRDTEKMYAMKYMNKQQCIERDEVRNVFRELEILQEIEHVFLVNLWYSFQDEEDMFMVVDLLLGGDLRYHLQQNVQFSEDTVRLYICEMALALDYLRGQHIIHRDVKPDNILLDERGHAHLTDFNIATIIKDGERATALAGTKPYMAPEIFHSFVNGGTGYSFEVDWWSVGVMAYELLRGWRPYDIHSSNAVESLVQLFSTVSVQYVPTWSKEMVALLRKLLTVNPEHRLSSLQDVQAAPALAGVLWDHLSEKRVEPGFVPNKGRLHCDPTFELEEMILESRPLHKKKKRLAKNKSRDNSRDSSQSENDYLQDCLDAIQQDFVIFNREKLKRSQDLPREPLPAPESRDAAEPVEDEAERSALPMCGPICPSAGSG

hM2 = target: T27, hM2 (Homo sapiens, UniProt P08172); experiment: β-arrestin Agonist (Eurofins-CEREP); conditions: @ 10 μM
T27 sequence (P08172 1-466): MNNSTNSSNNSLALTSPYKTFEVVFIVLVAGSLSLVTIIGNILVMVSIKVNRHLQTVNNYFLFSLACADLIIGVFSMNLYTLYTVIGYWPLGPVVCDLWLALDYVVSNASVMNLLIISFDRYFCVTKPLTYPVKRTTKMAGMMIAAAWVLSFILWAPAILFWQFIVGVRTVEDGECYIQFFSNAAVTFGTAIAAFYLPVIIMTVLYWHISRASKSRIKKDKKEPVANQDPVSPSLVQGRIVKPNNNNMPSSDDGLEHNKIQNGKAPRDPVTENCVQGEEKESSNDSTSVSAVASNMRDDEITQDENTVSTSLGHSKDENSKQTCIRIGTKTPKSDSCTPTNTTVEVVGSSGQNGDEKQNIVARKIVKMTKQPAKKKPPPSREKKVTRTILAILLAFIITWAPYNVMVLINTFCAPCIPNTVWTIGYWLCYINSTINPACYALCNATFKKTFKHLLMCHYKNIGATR

hADORA3 = target: T28, hADORA3 (Homo sapiens, UniProt P0DMS8); experiment: β-arrestin Antagonist (Eurofins-CEREP); conditions: read-out: % Effect, Inhibition
T28 sequence (P0DMS8 1-318): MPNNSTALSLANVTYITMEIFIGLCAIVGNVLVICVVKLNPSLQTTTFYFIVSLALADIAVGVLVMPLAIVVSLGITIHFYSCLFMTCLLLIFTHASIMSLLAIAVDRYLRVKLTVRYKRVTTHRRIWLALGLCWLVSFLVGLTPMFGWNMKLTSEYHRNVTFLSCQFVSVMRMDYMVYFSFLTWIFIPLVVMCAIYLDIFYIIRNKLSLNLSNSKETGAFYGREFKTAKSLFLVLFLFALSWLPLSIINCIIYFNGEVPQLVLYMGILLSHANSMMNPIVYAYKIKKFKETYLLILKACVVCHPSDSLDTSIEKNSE

hH1 = hH1 (Homo sapiens, UniProt P35367); experiment: β-arrestin Antagonist (Eurofins-CEREP); conditions: read-out: % Effect, Inhibition
hM3 = hM3 (Homo sapiens, UniProt P20309); experiment: Calcium Mobilization Agonist (Eurofins-CEREP); conditions: @ 13.3 μM
Chain of hM3 (P20309 whole entry): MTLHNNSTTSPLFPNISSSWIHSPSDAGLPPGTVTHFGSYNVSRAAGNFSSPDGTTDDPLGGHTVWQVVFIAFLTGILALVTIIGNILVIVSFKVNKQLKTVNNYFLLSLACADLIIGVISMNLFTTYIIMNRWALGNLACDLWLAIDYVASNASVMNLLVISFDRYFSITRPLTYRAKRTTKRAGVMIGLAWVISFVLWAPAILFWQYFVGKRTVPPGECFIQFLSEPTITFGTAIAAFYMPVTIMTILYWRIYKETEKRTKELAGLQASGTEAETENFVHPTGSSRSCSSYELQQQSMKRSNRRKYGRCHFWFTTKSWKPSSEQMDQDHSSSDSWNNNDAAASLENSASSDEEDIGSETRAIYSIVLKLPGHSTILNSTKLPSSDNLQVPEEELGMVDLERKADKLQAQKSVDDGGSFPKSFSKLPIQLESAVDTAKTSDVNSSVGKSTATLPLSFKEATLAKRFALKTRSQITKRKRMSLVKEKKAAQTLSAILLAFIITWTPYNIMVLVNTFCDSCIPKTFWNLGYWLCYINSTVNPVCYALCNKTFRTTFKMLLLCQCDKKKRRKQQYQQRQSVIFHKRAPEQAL

Compound `Cc1cn(CCN2CCN(c3ccccc3-c3cc(C#N)cc(C(=O)NCCCN4CCCC4)c3)CC2)c2ccccc12` [LLY-507, 3-cyano-5-{2-[4-[2-(3-methylindol-1-yl)ethyl]piperazin-1-yl]-phenyl}-N-[(3-pyrrolidin-1-yl)propyl]benzamide] has an IC50 (hABL1(pE255K)) greater than 20 µM, an IC50 (hABL1(pY253F)) greater than 20 µM and an IC50 (hADCK4) greater than 20 µM. It also gave an IC50 (hAKT2) greater than 20 µM, an IC50 (hAURKB) greater than 20 µM and an IC50 (hBMPR1A) greater than 20 µM. For the same compound, the IC50 (hCAMK1) was greater than 20 µM, the IC50 (hCLK1) was greater than 20 µM and the IC50 (hCLK4) was greater than 20 µM. For the same compound, the IC50 (hEGFR(G719C)) was greater than 20 µM, the IC50 [1] was greater than 20 µM and the IC50 (hEPHA4) was greater than 20 µM. The IC50 (hEPHB6) was greater than 20 µM, the IC50 (hERN1) was greater than 20 µM and the IC50 (hFGFR4) was greater than 20 µM. For the same compound, the IC50 (hFLT3(ITD)) was greater than 20 µM, the IC50 (hHIPK4) was greater than 20 µM and the IC50 (hJNK1) was greater than 20 µM. It also gave an IC50 (hMAP3K4) greater than 20 µM, an IC50 (hMET) greater than 20 µM and an IC50 (hRET(V804M)) greater than 20 µM. The IC50 (hROCK1) was greater than 20 µM, the IC50 (hSLK) was greater than 20 µM and the IC50 (hTAK1) was greater than 20 µM. For the same compound, the IC50 (hTIE2) was greater than 20 µM, the IC50 (hTSSK1B) was greater than 20 µM and the IC50 (hYANK3) was greater than 20 µM. The “% Effect, Stimulation” value (hM2) was 5.1%, the inhibition at 10 µM (hADORA3) was -38.3% and the inhibition at 10 µM (hH1) was 30.1%. The “% Effect, Stimulation” value (hM3) was -1.4%.
